Source: US20260273107A1, “COMPOUND PHARMACEUTICAL PREPARATION CONTAINING OIL COMPONENT COMPRISING POLYOXYETHYLENE STRUCTURE” (CHUGAI SEIYAKU KABUSHIKI KAISHA, priority 2022, published 2026)
Values after ≈ are worked out from the molar mass of the structure shown. Read-outs that look alike come from different tables or passages of the source. Numbered stars: 1 amine (or outer) side, 2 acyl side, 3 side chain; on linkers, the order of the positions; unused ones are H or OH. Bridge positions count the residues as written; N and C are the ends. Square brackets hold non-standard residues; d marks the D form. Peptide text beside a SMILES is read from it. * marks the point of attachment. hPhe(3-Cl-4-CF3) = N[C@@H](CCc1ccc(C(F)(F)F)c(Cl)c1)C(=O)O; X1 = CN(C(CC(=O)[*:2])C(=O)C1CCCCC1)[*:1]; NMeGly(cPent) = CN[C@H](C(=O)O)C1CCCC1; Bta = N[C@@H](Cc1csc2ccccc12)C(=O)O; NMeCha = CN[C@@H](CC1CCCCC1)C(=O)O; NMeChg = CN[C@H](C(=O)O)C1CCCCC1; NMeF = CN[C@@H](Cc1ccccc1)C(=O)O; NMeD = CN[C@@H](CC(=O)O)C(=O)O; NMeL = CN[C@@H](CC(C)C)C(=O)O; NMeAbu = CC[C@H](NC)C(=O)O; NMeA = CN[C@@H](C)C(=O)O; Piperidide = C1CCN(*)CC1; Ac5c = NC1(C(=O)O)CCCC1; Aze = O=C(O)[C@@H]1CCN1; Sar = CNCC(=O)O; tBu = CC(C)(C)*

Experiments:
[1] = Evaluation of Caco-2 membrane permeability; format: in vitro ADME; details: human, Apical FaSSIF/HBSS pH 6.0 to Basal HBSS 4% BSA pH 7.4, 180 minutes, after 18 to 24 hours preincubation, read-out: Caco2 (Papp)
Protocol: The permeability coefficient (Caco-2 Papp (cm/sec)) is calculated using a numerical expression 1.
[formula] • where dQ/dt is the permeation rate of the drug (amount of drug appearing on the Basal side per unit time), S is the total cell surface area, and C1 (0) is the concentration of drug added on the Apical side.
Caco-2 cells were cultured on 96-well Transwell for 3 weeks, then DMEM, FaSSIF (1% DMSO), and the compound were added to the Apical side, DMEM was added to the Basal side, and the cells were preincubated under 5% CO2 at 37° C. with shaking at 80 rpm for 18 to 24 hours. After the preincubation, the preincubation solutions on the Apical side and Basal side were sucked off and washed, a FaSSIF/HBSS buffer solution (1% DMSO) (pH 6.0) containing the compound was added to the Apical side, a HBSS buffer solution (4% BSA) (pH 7.4) was added to the Basal side, and measurement of membrane permeability was started. Each well was shaken under 5% CO2 at 37° C. and 80 rpm, and at 180 minutes after the start of shaking, a sample on the Basal side was collected, and the permeation amount was measured by LC/MS. From the permeation amount, the membrane permeability coefficient (Papp) was calculated. Note that the description “Caco-2 (cm/sec)” in the column in the table herein is used synonymously with “Papp (cm/sec)”.

[2] = Solubility of cyclic peptide compound in 50 mM phosphate buffer solution (pH 6.5), 37° C. (Example 3-3); format: physicochemical; details: shaking 22 to 24 hours, read-out: solubility in 50 mM phosphate buffer solution (PPB)
Protocol: Evaluation of the solubility of the cyclic peptide compound was performed. To lyophilized powder of the compound, a 50 mM phosphate buffer solution (PPB: Phosphate buffer, pH 6.5) was added, and after shaking (at 37° C., 1800 rpm, for 22 to 24 hours), the mixed solution was filtered through a filter, and the compound concentration of the filtrate was measured by LC/MS/MS. Solubility was calculated from the measured compound concentration. The solubilities of the compounds 3, 4, 6, 7, and 8 were 11 μg/mL, 1 μg/mL, 1 μg/mL, 15 μg/mL, and 5 μg/mL, respectively.

[3] = Solubility in aqueous solution containing 0.3% or 1% Cremophor EL (Example 3-3); format: physicochemical; details: 25° C., 22 to 24 hours
Protocol: Evaluation of the solubility of the cyclic peptide compound in the presence of a surfactant was performed. To lyophilized powder of the compound, an aqueous solution containing 0.3% or 1% Cremophor EL (CreEL) was added, and after shaking (at 25° C., 1000 rpm, for 22 to 24 hours), the mixed solution was filtered through a filter, and the compound concentration of the filtrate was measured by LC/UV. Solubility (μg/mL) was calculated from the measured compound concentration.

[4] = In vitro solubility evaluation in 50 mM phosphate buffer solution (PPB, pH 6.5), room temperature (Example 2-1); format: physicochemical; details: 50 mM phosphate buffer pH 6.5, room temperature, shaking 24 hours, no surfactant; read-out: solubilities, PPb
Protocol: (§1) To lyophilized powder of the compound, a 50 mM phosphate buffer solution (PPB: Phosphate buffer, pH 6.5) was added, and after shaking (at room temperature, 1800 rpm, for 24 hours), the mixed solution was filtered through a filter, and the compound concentration of the filtrate was measured by LC/MS/MS. […] To the compound powder, Cremophor EL (CreEL) (manufactured by Sigma-Aldrich Co., Ltd., “Kolliphor EL”, generic name: polyoxyethylene castor oil, average number of moles of ethylene oxide added 35), Vitamin E TPGS (manufactured by Sigma-Aldrich Co., Ltd.), an aqueous solution containing 1% TW80 (manufactured by Nacalai Tesque, Inc.), an aqueous solution containing 1.5% Ploxamer 188 (manufactured by BASF SE), or an aqueous solution containing 0.5% Triton X-100 was added, the mixed solution was stirred (at room temperature, for 20 hours) with a stirrer, and then filtered through a filter, and the compound concentration of the filtrate was measured by LC/UV. Solubility (μg/mL) was calculated from the measured compound concentration. […] From the above, CreEL and Vitamin E TPGS were selected as substrates that improve solubility independently of compounds, and evaluation of oral absorbability was performed.

[5] = Solubility in the presence of a surfactant (Example 2-1); format: physicochemical; details: room temperature, stirred 20 hours
Protocol: as §1

[6] = 0.3% Cremophor EL aqueous solution, read-out: solubility, 0.3% Cremophor EL
[7] = 1% Cremophor EL aqueous solution, read-out: solubility, 1% Cremophor EL

SMILES | Papp A→B at 180 min [1] | solubility [3, 6] | solubility [3, 7] | solubility at 24 h [4] | solubility at 20 h ([5]; 0.5% Triton X-100 aqueous solution, read-out: solubilities, TritonX-100 (0.5% aqueous solution)) | solubility at 20 h ([5]; 1% Cremophor EL aqueous solution, read-out: solubilities, CreEL (1% aqueous solution)) | solubility at 20 h ([5]; 1% TW80 aqueous solution, read-out: solubilities, TW80 (1% aqueous solution)) | solubility at 20 h ([5]; 1% Vitamin E TPGS aqueous solution, read-out: solubilities, VitaminE TPGS (1% aqueous solution)) | solubility at 20 h ([5]; 1.5% Poloxamer 188 aqueous solution, read-out: solubilities, Poloxamer 188 (1.5% aqueous solution)) | solubility [2]
CC[C@H](C)[C@@H]1NC(=O)[C@H](CC(C)C)N(C)C(=O)C[C@@H](C(=O)N2CCCCC2)N(C)C(=O)[C@H](C2CCCC2)N(C)C(=O)C2(CCCC2)NC(=O)[C@@H]2CCCN2C(=O)[C@H](CCc2ccc(C(F)(F)F)c(Cl)c2)NC(=O)CN(C)C(=O)[C@H](CC2CCCCC2)N(C)C(=O)[C@@H]2CCN2C(=O)[C@H](C)N(C)C1=O [Compound 6] ([NMeL]I[NMeA][Aze][NMeCha][Sar][hPhe(3-Cl-4-CF3)]P[Ac5c][NMeGly(cPent)][NMeD]-Piperidide; lactam N-11) | 0.61 ×10⁻⁶ cm/s | 434 µg/mL (≈ 298 µM) | 1450 µg/mL (≈ 999 µM) |  |  |  |  |  |  | 1 µg/mL (≈ 0.688 µM)
CC[C@H](C)[C@@H]1NC(=O)[C@H](CC(C)C)N(C)C(=O)C[C@@H](C(=O)N2CCOCC2)N(C)C(=O)[C@H](C2CCCC2)N(C)C(=O)C2(CCCC2)NC(=O)[C@@H]2CCCN2C(=O)[C@H](CCc2ccc(C(F)(F)F)c(Cl)c2)NC(=O)CN(C)C(=O)[C@H](Cc2ccc(C(F)(F)F)cc2)N2CCCCC[C@@H](C2=O)N(C)C(=O)CN(C)C1=O [Compound 9] | 0.14 ×10⁻⁶ cm/s | 450 µg/mL (≈ 291 µM) | 1510 µg/mL (≈ 978 µM) |  |  |  |  |  |  | 
CC[C@H]1C(=O)N[C@@H](COC(C)(C)C)C(=O)N(C)[C@@H](Cc2ccccc2)C(=O)N(C)[C@@H](C)C(=O)N[C@H](C(=O)N2CCCCC2)CC(=O)N[C@H](CC(C)C)C(=O)N(C)[C@@H](CC(C)C)C(=O)N[C@@H](Cc2csc3ccccc23)C(=O)N(C)[C@@H](CC(C)C)C(=O)N[C@@H]([C@@H](C)O)C(=O)N(C)CC(=O)N1C [Compound 5] ([dL][NMeL][Bta][NMeL]T[Sar][NMeAbu]S(tBu)[NMeF][NMeA]D-Piperidide; lactam N-11) | 1.42 ×10⁻⁶ cm/s | 295 µg/mL (≈ 209 µM) | 1110 µg/mL (≈ 785 µM) |  |  |  |  |  |  | 

More lines, main results first:

Papp A→B at 180 min [1] | solubility [3, 6] | solubility [3, 7] | solubility at 24 h [4] | solubility at 20 h ([5]; 0.5% Triton X-100 aqueous solution, read-out: solubilities, TritonX-100 (0.5% aqueous solution)) | solubility at 20 h ([5]; 1% Cremophor EL aqueous solution, read-out: solubilities, CreEL (1% aqueous solution)) | solubility at 20 h ([5]; 1% TW80 aqueous solution, read-out: solubilities, TW80 (1% aqueous solution)) | solubility at 20 h ([5]; 1% Vitamin E TPGS aqueous solution, read-out: solubilities, VitaminE TPGS (1% aqueous solution)) | solubility at 20 h ([5]; 1.5% Poloxamer 188 aqueous solution, read-out: solubilities, Poloxamer 188 (1.5% aqueous solution)) | SMILES | solubility [2]
0.71 ×10⁻⁶ cm/s |  |  | 1 µg/mL (≈ 0.694 µM) | 743 µg/mL | 3380 µg/mL | 1270 µg/mL | 3100 µg/mL | < 13 µg/mL | CC[C@H](C)[C@@H]1NC(=O)[C@H](CC(C)C)N(C)C(=O)CC(C(=O)C2CCCCC2)N(C)C(=O)[C@H](C2CCCCC2)N(C)C(=O)C2(CCCC2)NC(=O)[C@@H]2CCCN2C(=O)[C@H](CCc2ccc(C(F)(F)F)c(Cl)c2)NC(=O)CN(C)C(=O)[C@H](CC2CCCCC2)N(C)C(=O)CN(C)C(=O)CN(C)C1=O (some centres unmarked) [Compound 1] (cyclo([Ac5c][NMeChg][X1][NMeL]I[Sar][Sar][NMeCha][Sar][hPhe(3-Cl-4-CF3)]P)) | 
0.7 ×10⁻⁶ cm/s | 583 µg/mL (≈ 387 µM) | 1680 µg/mL (≈ 1120 µM) |  |  |  |  |  |  | CCO[C@@H]1C[C@H]2C(=O)NC3(CCC3)C(=O)N(C)[C@@H](C3CCCC3)C(=O)N(C)[C@H](C(=O)N(C)C)CC(=O)N(C)[C@@H](CC)C(=O)N[C@@H]([C@@H](C)CC)C(=O)N(C)CC(=O)N(C)[C@H]3C/C=C\CCN(C3=O)[C@@H](Cc3ccc(C(F)(F)F)cc3)C(=O)N(C)CC(=O)N[C@@H](CCc3cc(F)c(C(F)(F)F)c(F)c3)C(=O)N2C1 [Compound 10] | 
